Earlier results in US20080146664A1, “Method for treating diseases caused by accumulation of body fat” (priority 2006, published 2008).

Details: addition of conjugated linoleic acid

conjugated linoleic acid
lipodystrophy-like symptoms (fatty liver, splenic hypertrophy, disappearance of brown fat): generated
pattern of adipose tissue decrease: partial decrease in adipose tissue
significant decrease in the parametrial adipose tissue: not observed
significant decrease in the weight of the liver: not observed
